The source of these data is patent US5229265A, “Process for analyzing clastogenic agents” (Litron Laboratories, priority 1990, dated 1993).

The subject of this data set is polychromatic cells (PCEs). As to the kind of experiment: PCE count in blood by flow cytometry. The data set is classed as in vivo, mouse. The note with it: mice dosed with DMBA. The method, then: When two dyes are used for simultaneous micronucleus and PCE discrimination, the cell suspension is prepared as follows: The Hoechst 33258 working solution described above is prepared and is filtered through an 0.2 micron Acro-disk (Gilman Sciences). In addition, a propidium iodide (PI) working solution is prepared (5 mg PI/100 ml phosphate buffered saline (PBS)). A buffer-dye solution is then prepared by adding the PI solution (100 μl) and Hoechst 33258 working solution (25 μl) to PBS (867.5 μl). The resulting buffer-dye solution is then dispensed (992.5 μl) into samples tubes. A sample of fixed blood (15 μl) is then added to the corresponding tube. When blood from a malaria (P. berghei) infected mouse was fixed and stained by this procedure, the bivariate pattern shown in FIG. 1B resulted, in which a stronger red fluorescence signal was obtained. In this case, good resolution is achieved if BSA is omitted from the stained cell suspension. The pH of the stained solution is important for good fluorescence emission profiles and resolution of the different cell populations. With Hoechst 33258 and propidium iodide, good results can be obtained in the range from pH 6 to pH 8. Lower or higher pH levels cause a broadening of the fluorescence patterns which adversely affect the resolution of the PCes and micronucleated cells. Operationally,it is advisable to store the fixed samples and analyze freshly stained samples.
Although it is inappropriate to directly compare the number of MNs in the 0 hr and 96 hr samples because of this PCE change, it is possible to normalize the data to take into account said change. An increase in the number of PCEs will cause a decrease in the total number of MNs counted in the PCE window for a 96 hour sample. […]
Another staining embodiment of this invention involves the use of dual parameter data acquisition in conjunction with two dyes, Hoechst 33258 and propidium iodide so as to analyze both MNs and PCEs. […] Propidium iodide endows the PCEs with a strong red fluorescence signal which pulls them out of the RBC contour. […]

As for `Cc1c2ccccc2c(C)c2c1ccc1ccccc12` [DMBA, dimethyl benzathracene], the “production of PCEs” value is given as “production of PCEs is suppressed”.
